Reference: ChEMBL document CHEMBL3045370, “Design and synthesis of 6-alkyoxyl[1,2,4]triazolo[1,5-a]quinazoline derivatives with anticonvulsant activity” (Med Chem Res, 2012)
Active and inactive are the calls of the source. The calls are words filed in the database; no cut-off is given here.

system: Mus musculus; assay: Anticonvulsant activity in Mus musculus Kunming (mouse) assessed as protection against maximal electroshock-induced seizure at 100 mg/kg, ip administered 30 min prior to testing; assay type: functional, organism-based; design: dose 100 mg/kg; conditions: not given

SMILES	Activity
c1ccc(COc2cccc3c2cnc2ncnn23)cc1	Active
CCCCCCCCOc1cccc2c1cnc1ncnn12	inactive
CCCCCOc1cccc2c1cnc1ncnn12	Active
Fc1ccc(COc2cccc3c2cnc2ncnn23)cc1	inactive
Fc1cccc(COc2cccc3c2cnc2ncnn23)c1	inactive
CCCCCCCCCCOc1cccc2c1cnc1ncnn12	inactive
CCCCCCCOc1cccc2c1cnc1ncnn12	inactive
Clc1ccccc1COc1cccc2c1cnc1ncnn12	inactive
N#Cc1ccccc1COc1cccc2c1cnc1ncnn12	inactive
Cc1ccc(COc2cccc3c2cnc2ncnn23)cc1	inactive
Clc1ccc(COc2cccc3c2cnc2ncnn23)c(Cl)c1	inactive
Clc1cccc(COc2cccc3c2cnc2ncnn23)c1	inactive
Clc1ccc(COc2cccc3c2cnc2ncnn23)cc1	inactive
Brc1ccccc1COc1cccc2c1cnc1ncnn12	inactive
CCCCOc1cccc2c1cnc1ncnn12	inactive
CCCCCCOc1cccc2c1cnc1ncnn12	inactive
N#Cc1ccc(COc2cccc3c2cnc2ncnn23)cc1	inactive
Fc1ccccc1COc1cccc2c1cnc1ncnn12	inactive
COc1ccc(COc2cccc3c2cnc2ncnn23)cc1	inactive

system: not listed separately; assay: Neurotoxicity against ip dosed Mus musculus Kunming (mouse) assessed as inability to maintain equilibrium on rod measured for 1 min by rota rod test; assay type: toxicity, organism-based; conditions: in vivo

SMILES	TD50 at 1 min
c1ccc(COc2cccc3c2cnc2ncnn23)cc1	710 mg/kg
NC(=O)N1c2ccccc2C=Cc2ccccc21 [CARBAMAZEPINE]	76.1 mg/kg

system: not listed separately; assay: Protective index, ratio of TD50 for neurotoxicity to ED50 for anticonvulsant activity in Mus musculus Kunming (mouse); assay type: toxicity, organism-based; conditions: in vivo, read-out: Ratio TD50/ED50

SMILES	selectivity ratio
c1ccc(COc2cccc3c2cnc2ncnn23)cc1	9

system: Mus musculus; assay: Anticonvulsant activity in ip dosed Mus musculus Kunming (mouse) assessed as protection against maximal electroshock-induced seizure administered 30 min prior to testing; assay type: functional; conditions: not given

SMILES	ED50
c1ccc(COc2cccc3c2cnc2ncnn23)cc1	78.9 mg/kg
NC(=O)N1c2ccccc2C=Cc2ccccc21 [CARBAMAZEPINE]	11.8 mg/kg
